Measured values: patent US5593984A, “Cephalosporin derivatives” (Yuhan Corporation, priority 1992, dated 1997)
In brackets after ≈: the same amount, converted by molar mass.

Key:
Type in all cases: cell-based
[1] = test system: P. vulgaris NCTC 8313; assay: MIC by agar dilution, P. vulgaris NCTC 8313; conditions: Proteus vulgaris, NCTC8313, 17 h; P. vulgaris NCTC 8313; agar dilution, Mueller-Hinton agar; read-out: Minimal Inhibitory Concentration (MIC)
Outline: (§1)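 Following inoculation at 10^6 CFU per ml onto agar containing two-fold compound dilutions, plates were incubated 17±1 hours at 35°-37° C.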

[2] = test system: E. coli DY-1; assay: MIC by agar dilution, E. coli DY-1; conditions: Escherichia coli, DY1, 17 h; E. coli DY-1; agar dilution, Mueller-Hinton agar; read-out: Minimal Inhibitory Concentration (MIC)
Outline: as §1

[3] = test system: Ser. marcescens IFO 12648; assay: MIC by agar dilution, Ser. marcescens IFO 12648; conditions: Serratia marcescens, IFO12648, 17 h; Ser. marcescens IFO 12648; agar dilution, Mueller-Hinton agar; read-out: Minimal Inhibitory Concentration (MIC)
Outline: as §1

[4] = test system: M. morganii DY-1; assay: MIC by agar dilution, M. morganii DY-1; conditions: Morganella morganii, DY1, 17 h; M. morganii DY-1; agar dilution, Mueller-Hinton agar; read-out: Minimal Inhibitory Concentration (MIC)
Outline: as §1

[5] = test system: K. pneumoniae NCTC 9632; assay: MIC by agar dilution, K. pneumoniae NCTC 9632; conditions: Klebsiella pneumoniae, NCTC9632, 17 h; K. pneumoniae NCTC 9632; agar dilution, Mueller-Hinton agar; read-out: Minimal Inhibitory Concentration (MIC)
Outline: as §1

[6] = test system: Ent. cloacae IFO 13535; assay: MIC by agar dilution, Ent. cloacae IFO 13535; conditions: Enterobacter cloacae, IFO13535, 17 h; Ent. cloacae IFO 13535; agar dilution, Mueller-Hinton agar; read-out: Minimal Inhibitory Concentration (MIC)
Outline: as §1

[7] = test system: E. coli NIHJ JC-2; assay: MIC by agar dilution, E. coli NIHJ JC-2; conditions: Escherichia coli, NIHJJC2, 17 h; E. coli NIHJ JC-2; agar dilution, Mueller-Hinton agar; read-out: Minimal Inhibitory Concentration (MIC)
Outline: as §1

[8] = test system: Staph. aureus ATCC 6538P; assay: MIC by agar dilution, Staph. aureus ATCC 6538P; conditions: Staphylococcus aureus, ATCC6538P, 17 h; Staph. aureus ATCC 6538P; agar dilution, Mueller-Hinton agar; read-out: Minimal Inhibitory Concentration (MIC)
Outline: as §1

[9] = test system: Ps. aeruginosa NCTC 10490; assay: MIC by agar dilution, Ps. aeruginosa NCTC 10490; conditions: Pseudomonas aeruginosa, NCTC10490, 17 h, Mueller-Hinton agar, read-out: Minimal Inhibitory Concentration (MIC)
Outline: as §1

[10] = test system: E. coli No. 29; assay: MIC by agar dilution, E. coli No. 29; conditions: Escherichia coli, 17 h; E. coli No. 29; agar dilution, Mueller-Hinton agar; read-out: Minimal Inhibitory Concentration (MIC)
Outline: as §1

[11] = test system: Prov. stuartii IFO 12930; assay: MIC by agar dilution, Prov. stuartii IFO 12930; conditions: Providencia stuartii, IFO12930, 17 h, Mueller-Hinton agar, read-out: Minimal Inhibitory Concentration (MIC)
Outline: as §1

[12] = test system: Ps. aeruginosa ATCC 10145; assay: MIC by agar dilution, Ps. aeruginosa ATCC 10145; conditions: Pseudomonas aeruginosa, ATCC10145, 17 h, Mueller-Hinton agar, read-out: Minimal Inhibitory Concentration (MIC)
Outline: as §1

[13] = test system: Ps. aeruginosa DY-2; assay: MIC by agar dilution, Ps. aeruginosa DY-2; conditions: Pseudomonas aeruginosa, DY2, 17 h; Ps. aeruginosa DY-2; agar dilution, Mueller-Hinton agar; read-out: Minimal Inhibitory Concentration (MIC)
Outline: as §1

[14] = test system: Staph. aureus C-5216; assay: MIC by agar dilution, Staph. aureus C-5216; conditions: Staphylococcus aureus, C5216, 17 h, Mueller-Hinton agar, read-out: Minimal Inhibitory Concentration (MIC)
Outline: as §1

[15] = test system: Staph. aureus Smith; assay: MIC by agar dilution, Staph. aureus Smith; conditions: Staphylococcus aureus, 17 h, Mueller-Hinton agar, read-out: Minimal Inhibitory Concentration (MIC)
Outline: as §1

[16] = test system: Staph. aureus C-5113; assay: MIC by agar dilution, Staph. aureus C-5113; conditions: Staphylococcus aureus, C5113, 17 h, Mueller-Hinton agar, read-out: Minimal Inhibitory Concentration (MIC)
Outline: as §1

[17] = test system: Staph. aureus C-57; assay: MIC by agar dilution, Staph. aureus C-57; conditions: Staphylococcus aureus, C57, 17 h, Mueller-Hinton agar, read-out: Minimal Inhibitory Concentration (MIC)
Outline: as §1

[18] = test system: B. subtilis ATCC 6633; assay: MIC by agar dilution, B. subtilis ATCC 6633; conditions: Bacillus subtilis, ATCC6633, 17 h; B. subtilis ATCC 6633; agar dilution, Mueller-Hinton agar; read-out: Minimal Inhibitory Concentration (MIC)
Outline: as §1

[19] = test system: Ent. aerogenes IFO 12979; assay: MIC by agar dilution, Ent. aerogenes IFO 12979; conditions: Klebsiella aerogenes, IFO12979, 17 h, Mueller-Hinton agar, read-out: Minimal Inhibitory Concentration (MIC)
Outline: as §1

[20] = test system: S. epidermidis ATCC 12228; assay: MIC by agar dilution, S. epidermidis ATCC 12228; conditions: Staphylococcus epidermidis, ATCC12228, 17 h; S. epidermidis ATCC 12228; agar dilution, Mueller-Hinton agar; read-out: Minimal Inhibitory Concentration (MIC)
Outline: as §1

SMILES	MIC [1] [µg/mL]	MIC [2] [µg/mL]	MIC [3] [µg/mL]	MIC [4] [µg/mL]	MIC [5] [µg/mL]	MIC [6] [µg/mL]	MIC [7] [µg/mL]	MIC [8] [µg/mL]	MIC [9] [µg/mL]	MIC [10] [µg/mL]	MIC [11] [µg/mL]	MIC [12] [µg/mL]	MIC [13] [µg/mL]	MIC [14] [µg/mL]	MIC [15] [µg/mL]	MIC [16] [µg/mL]	MIC [17] [µg/mL]	MIC [18] [µg/mL]	MIC [19] [µg/mL]	MIC [20] [µg/mL]
CO/N=C(\C(=O)N[C@@H]1C(=O)N2C(C(=O)[O-])=C(C[n+]3ccn4ccc(CO)c4c3)CS[C@H]12)c1nc(N)sc1Cl [Ex. 54, 7-β-[(Z)-2-(2-amino-5-chlorothiazol-4-yl)-2-methoxyiminoacetamido]-3-(8-hydroxymethylpyrrolo[1,2-a]-pyrazinium-2-yl)methyl-3-cephem-4-carboxylate]	0.05 (≈ 0.0865 µM)	0.025 (≈ 0.0433 µM)	0.39 (≈ 0.675 µM)	0.1 (≈ 0.173 µM)	0.78 (≈ 1.35 µM)	0.78 (≈ 1.35 µM)	0.39 (≈ 0.675 µM)	0.39 (≈ 0.675 µM)	0.78 (≈ 1.35 µM)	0.05 (≈ 0.0865 µM)	0.025 (≈ 0.0433 µM)	3.13 (≈ 5.41 µM)	12.5 (≈ 21.6 µM)	1.56 (≈ 2.7 µM)	0.78 (≈ 1.35 µM)	0.78 (≈ 1.35 µM)	6.25 (≈ 10.8 µM)	0.2 (≈ 0.346 µM)	0.1 (≈ 0.173 µM)	0.05 (≈ 0.0865 µM)
CO/N=C(\C(=O)N[C@@H]1C(=O)N2C(C(=O)[O-])=C(C[n+]3ccn4ccc(CO)c4c3)CS[C@H]12)c1nsc(N)n1 [Ex. 55, 7-β-[(Z)-2-(5-amino-1,2,4-thiadiazol-3-yl)-2-methoxyiminoacetamido]-3-(8-hydroxymethylpyrrolo[1,2-a]-pyrazinium-2-yl)methyl-3-cephem-4-carboxylate]	0.05 (≈ 0.0918 µM)	0.012 (≈ 0.022 µM)	0.025 (≈ 0.0459 µM)	0.025 (≈ 0.0459 µM)	0.025 (≈ 0.0459 µM)	0.1 (≈ 0.184 µM)	0.012 (≈ 0.022 µM)	0.78 (≈ 1.43 µM)	0.1 (≈ 0.184 µM)	≤ 0.006	≤ 0.006	0.78 (≈ 1.43 µM)	1.56 (≈ 2.86 µM)	3.13 (≈ 5.75 µM)	1.56 (≈ 2.86 µM)	6.25 (≈ 11.5 µM)	25 (≈ 45.9 µM)	0.1 (≈ 0.184 µM)	0.025 (≈ 0.0459 µM)	0.2 (≈ 0.367 µM)
CO/N=C(\C(=O)N[C@@H]1C(=O)N2C(C(=O)[O-])=C(C[n+]3ccn4cccc4c3C)CS[C@H]12)c1nc(N)sc1Cl [Ex. 56, 7-β-[(Z)-2-(2-amino-5-chlorothiazol-4-yl)-2-methoxyiminoacetamido]-3-(1-methylpyrrolo[1,2-a]-pyrazinium-2-yl)methyl-3-cephem-4-carboxylate]	0.012 (≈ 0.0214 µM)	0.05 (≈ 0.089 µM)	0.2 (≈ 0.356 µM)	0.39 (≈ 0.694 µM)	0.1 (≈ 0.178 µM)	0.78 (≈ 1.39 µM)	0.2 (≈ 0.356 µM)	0.05 (≈ 0.089 µM)	0.78 (≈ 1.39 µM)	0.05 (≈ 0.089 µM)	0.012 (≈ 0.0214 µM)	1.56 (≈ 2.78 µM)	3.13 (≈ 5.57 µM)	0.78 (≈ 1.39 µM)	0.39 (≈ 0.694 µM)	0.78 (≈ 1.39 µM)	3.13 (≈ 5.57 µM)	0.2 (≈ 0.356 µM)	0.1 (≈ 0.178 µM)	0.1 (≈ 0.178 µM)
CO/N=C(\C(=O)N[C@@H]1C(=O)N2C(C(=O)[O-])=C(C[n+]3ccn4cccc4c3C)CS[C@H]12)c1nsc(N)n1 [Ex. 57, 7-β-[(Z)-2-(5-amino-1,2,4-thiadiazol-3-yl)-2-methoxyiminoacetamido]-3-(1-methylpyrrolo[1,2-a]-pyrazinium-2-yl)methyl-3-cephem-4-carboxylate]	0.05 (≈ 0.0946 µM)	0.025 (≈ 0.0473 µM)	0.025 (≈ 0.0473 µM)	0.05 (≈ 0.0946 µM)	0.012 (≈ 0.0227 µM)	0.1 (≈ 0.189 µM)	0.012 (≈ 0.0227 µM)	0.1 (≈ 0.189 µM)	0.2 (≈ 0.378 µM)	0.025 (≈ 0.0473 µM)	0.012 (≈ 0.0227 µM)	0.78 (≈ 1.48 µM)	1.56 (≈ 2.95 µM)	0.39 (≈ 0.738 µM)	0.78 (≈ 1.48 µM)	0.2 (≈ 0.378 µM)	1.56 (≈ 2.95 µM)	0.2 (≈ 0.378 µM)	0.025 (≈ 0.0473 µM)	0.05 (≈ 0.0946 µM)
CO/N=C(\C(=O)N[C@@H]1C(=O)N2C(C(=O)[O-])=C(C[n+]3ccn4c(CO)ccc4c3C)CS[C@H]12)c1nc(N)sc1Cl [Ex. 58, 7-β-[(Z)-2-(2-amino-5-chlorothiazol-4-yl)-2-methoxyiminoacetamido]-3-(6-hydroxymethyl-1-methylpyrrolo[1,2-a]-pyrazinium-2-yl)methyl-3-cephem-4-carboxylate]	0.012 (≈ 0.0203 µM)	0.05 (≈ 0.0845 µM)	0.2 (≈ 0.338 µM)	0.39 (≈ 0.659 µM)	0.1 (≈ 0.169 µM)	0.78 (≈ 1.32 µM)	0.2 (≈ 0.338 µM)	0.05 (≈ 0.0845 µM)	0.78 (≈ 1.32 µM)	0.05 (≈ 0.0845 µM)	0.012 (≈ 0.0203 µM)	1.56 (≈ 2.63 µM)	3.13 (≈ 5.29 µM)	0.78 (≈ 1.32 µM)	0.39 (≈ 0.659 µM)	0.78 (≈ 1.32 µM)	3.13 (≈ 5.29 µM)	0.2 (≈ 0.338 µM)	0.1 (≈ 0.169 µM)	0.1 (≈ 0.169 µM)
CO/N=C(\C(=O)N[C@@H]1C(=O)N2C(C(=O)[O-])=C(C[n+]3ccn4c(Br)ccc4c3C)CS[C@H]12)c1nsc(N)n1 [Ex. 59, 7-β-[(Z)-2-(5-amino-1,2,4-thiadiazol-3-yl)-2-methoxyiminoacetamido]-3-(6-bromo-1-methylpyrrolo[1,2-a]pyrazinium-2-yl)methyl-3-cephem-4-carboxylate]	0.012 (≈ 0.0198 µM)	≤ 0.006	0.025 (≈ 0.0412 µM)	0.025 (≈ 0.0412 µM)	0.025 (≈ 0.0412 µM)	0.2 (≈ 0.329 µM)	0.025 (≈ 0.0412 µM)	0.1 (≈ 0.165 µM)	1.56 (≈ 2.57 µM)	0.012 (≈ 0.0198 µM)	≤ 0.006	1.56 (≈ 2.57 µM)	12.5 (≈ 20.6 µM)	0.78 (≈ 1.28 µM)	0.39 (≈ 0.642 µM)	0.78 (≈ 1.28 µM)	6.25 (≈ 10.3 µM)	0.1 (≈ 0.165 µM)	≤ 0.006	0.05 (≈ 0.0823 µM)
